Data set [1] has as its system rat uterine decidualization. Briefly: Rat decidualization assay. Format: in vivo. The settings on record: for EC50: half-maximal increase in decidual response (uterine wet weight), ovariectomized rats, s.c., individual studies. The procedure:
1. Rat Decidualization Assay:
The animals are treated once daily for seven days.
Uteri are removed and trimmed of fat. Decidualized (D-hom) and control (C-horn) uterine horns are weighed separately.
Body weight: Mean total animal body weight (default-kg)
Decidual response: [(D-C)/C]×100%

The target in data set [2] is T1, A-form of the human progesterone receptor (Homo sapiens, UniProt P06401).
T1 sequence (P06401 1-769 isoform P06401-2): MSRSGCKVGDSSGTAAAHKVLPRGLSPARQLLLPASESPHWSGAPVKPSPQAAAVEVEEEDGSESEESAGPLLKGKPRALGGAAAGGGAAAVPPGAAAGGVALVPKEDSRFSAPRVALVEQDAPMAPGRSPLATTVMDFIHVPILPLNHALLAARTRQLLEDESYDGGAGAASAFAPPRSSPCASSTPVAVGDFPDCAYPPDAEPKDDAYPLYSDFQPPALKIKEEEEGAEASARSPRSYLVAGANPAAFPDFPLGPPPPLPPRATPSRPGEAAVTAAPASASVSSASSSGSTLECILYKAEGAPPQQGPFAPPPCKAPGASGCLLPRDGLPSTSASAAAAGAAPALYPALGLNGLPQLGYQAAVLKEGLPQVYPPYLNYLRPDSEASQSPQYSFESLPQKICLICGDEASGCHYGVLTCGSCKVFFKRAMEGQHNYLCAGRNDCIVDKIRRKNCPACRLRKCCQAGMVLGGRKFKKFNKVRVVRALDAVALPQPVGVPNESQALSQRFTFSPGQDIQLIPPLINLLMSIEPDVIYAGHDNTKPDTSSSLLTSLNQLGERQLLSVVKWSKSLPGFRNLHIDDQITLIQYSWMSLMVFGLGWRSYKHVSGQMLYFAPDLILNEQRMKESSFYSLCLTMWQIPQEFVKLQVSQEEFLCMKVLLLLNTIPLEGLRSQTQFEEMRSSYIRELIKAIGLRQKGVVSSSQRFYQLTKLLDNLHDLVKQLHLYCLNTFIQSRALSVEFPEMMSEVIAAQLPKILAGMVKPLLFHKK
The experiment in a line: hPR binding assay (competitive radioligand binding).

The target in data set [3] is T2, human PR (Homo sapiens, UniProt P06401).
T2 construct: expressed in transfected cells; host or cells: CV-1 cells, electroporated with pLEM-hPR-B plasmid
T2 sequence (P06401 1-933): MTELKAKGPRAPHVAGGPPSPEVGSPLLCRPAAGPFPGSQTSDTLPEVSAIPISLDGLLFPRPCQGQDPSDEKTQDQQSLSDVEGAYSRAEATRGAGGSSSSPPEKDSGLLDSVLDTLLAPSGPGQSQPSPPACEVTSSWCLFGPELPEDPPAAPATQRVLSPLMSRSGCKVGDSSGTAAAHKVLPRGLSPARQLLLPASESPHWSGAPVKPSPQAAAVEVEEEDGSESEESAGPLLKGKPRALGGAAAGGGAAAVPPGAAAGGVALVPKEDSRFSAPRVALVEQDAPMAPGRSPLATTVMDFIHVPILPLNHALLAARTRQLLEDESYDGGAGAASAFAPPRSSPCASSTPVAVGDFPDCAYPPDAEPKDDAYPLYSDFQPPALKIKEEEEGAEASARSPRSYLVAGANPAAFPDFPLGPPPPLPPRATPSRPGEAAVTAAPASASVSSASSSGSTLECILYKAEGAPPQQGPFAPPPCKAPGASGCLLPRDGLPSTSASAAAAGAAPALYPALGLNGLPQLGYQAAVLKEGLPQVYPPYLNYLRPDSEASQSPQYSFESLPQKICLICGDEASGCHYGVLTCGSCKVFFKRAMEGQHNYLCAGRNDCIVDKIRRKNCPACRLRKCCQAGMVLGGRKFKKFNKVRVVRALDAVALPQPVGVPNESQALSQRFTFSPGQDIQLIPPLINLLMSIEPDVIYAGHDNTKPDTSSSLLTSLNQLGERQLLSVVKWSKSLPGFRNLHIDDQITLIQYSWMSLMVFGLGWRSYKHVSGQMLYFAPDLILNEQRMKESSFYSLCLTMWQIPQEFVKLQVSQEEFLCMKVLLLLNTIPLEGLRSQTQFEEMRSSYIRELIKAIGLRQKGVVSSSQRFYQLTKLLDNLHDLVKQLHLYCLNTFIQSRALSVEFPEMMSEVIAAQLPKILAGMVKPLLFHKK
The experiment in a line: PRE-luciferase assay in CV-1 cells. Format: cell-based. The settings on record: PRE-luciferase agonist mode in CV-1 cells. On the procedure:
2. PRE-luciferase Assay in CV-1 Cells
The object of this assay is to determine a compound's progestational or antiprogestational potency based on its effect on PRE-luciferase reporter activity in CV-1 cells co-transfected with human PR and PRE-luciferase plasmids. The materials methods used in the assay are as follows.
a. Growth Medium: DMEM (BioWhittaker) containing 10% (v/v) fetal bovine serum (heat inactivated), 0.1 mM MEM non-essential amino acids, 100 U/ml penicillin, […] streptomycin, and 2 mM GlutaMax (GIBCO, BRL). Experimental medium: DMEM (BioWhittaker), phenol red-free, containing 10% (v/v) charcoal-stripped fetal bovine serum (heat-inactivated), 0.1 mM MEM non-essential amino acids, 100 U/ml penicillin, […] streptomycin, and 2 mM GlutaMax (GIBCO, BRL).
b. Cell Culture, Transfection, Treatment, and Luciferase Assay
Stock CV-1 cells are maintained in growth medium. Co-transfection is done using 1.2×10^7 cells, […] pLEM plasmid with hpR-B inserted at Sph1 and BamH1 sites, […] pGL3 plasmid with two PREs upstream of the luciferase sequence, and […] sonicated calf thymus DNA as carrier DNA in […]. Electroporation is carried out at 260 V and […] in a Biorad Gene Pulser II. After electroporation, cells are resuspended in growth medium and plated in 96-well plate at 40,000 cells/well in 200 μl. Following overnight incubation, the medium is changed to experimental medium. Cells are then treated with reference or test compounds in experimental medium. […] Twenty-four hr. after treatment, the medium is discarded, cells are washed three times with D-PBS (GIBCO, BRL). Fifty μl of cell lysis buffer (Promega, Madison, Wis.) is added to each well and the plates are shaken for 15 min in a Titer Plate Shaker (Lab Line Instrument, Inc.). Luciferase activity is measured using luciferase reagents from Promega.
Each treatment consists of at least 4 replicates. Log transformed data are used for analysis of variance and nonlinear dose response curve fitting for both agonist and antagonist modes. Huber weighting is used to downweight the effects of outliers. EC50 or IC50 values are calculated from the retransformed values.

Data set [4] concerns ovulation. Briefly: Rat ovulation inhibition model. The data set is classed as in vivo.
In data set [5] the test system is T47D cells. Briefly: T47D cell proliferation assay (BrdU incorporation). The data set is classed as cell-based. The settings on record: half-maximal increase in BrdU incorporation in T47D cells; individual studies. On the procedure:
3. T47D Cell Proliferation Assay
The objective of this assay is the determination of progestational and antiprogestational potency by using a cell proliferation assay in T47D cells. A compound's effect on DNA synthesis in T47D cells is measured.
DMEM:F12 (1:1) (GIBCO, BRL) supplemented with 10% (v/v) fetal bovine serum (not heat-inactivated), 100 U/ml penicillin, […], and 2 mM GlutaMax (GIBCO, BRL).
Minimum Essential Medium (MEM) (#51200-038GIBCO, BRL) phenol red-free supplemented with 0.5% charcoal stripped fetal bovine serum, 100 U/ml penicillin, 200 mg/ml streptomycin, and 2 mM GlutaMax (GIBCO, BRL).
Stock T47 D cells are maintained in growth medium For BrdU incorporation assay, cells are plated in 96-well plates (Falcon, Becton Dickinson Labware) at 10,000 cells/well in growth medium. […]
At the end of BrdU labeling, the medium is removed and BrdU incorporation is measured using a cell proliferation ELISA kit (#RPN 250, Amersham Life Science) according to manufacturer's instructions. […] Then 25 μl of 1 M sulfuric acid is added to each well to stop color reaction and optical density is read in a plate reader at 450 nm within 5 min.
Square root-transformed data are used for analysis of variance and nonlinear dose response curve fitting for both agonist and antagonist modes. […] EC50 or IC50 values are calculated from the retransformed values. […]

Where “and” joins values, the source holds several entries; their conditions need not be identical. Identical values can stand only once.

One may read the EC50 as the concentration that produces a half-maximal response. The term Ki denotes a measure of affinity in units of concentration, obtained from inhibition or displacement. Read a low Ki as a stronger hold on the target. What is called melting point is the temperature of the solid-liquid transition.

With `C#C[C@]1(O)CC[C@H]2[C@@H]3CCC4=CC(=O)CC[C@@H]4[C@H]3C(=C)C[C@@]21CC` [3-Ketodesogestrel], in data set [1], the EC50 is 0.10 mg/kg, s.c. and 0.06 mg/kg, s.c. and 0.11 mg/kg, s.c. In the case of `S=C1Nc2ccc(-c3cccc(Cl)c3)cc2C12CCCCC2` [Example 1, 5′-(3-Chlorophenyl)spiro[cyclohexane-1,3′-[3H]indole]-2′(1′H)-thione], the melting point lay within 223 to 227 °C. Moreover, in data set [2], affinity was put at a Ki of 0.2 nM. Further, in data set [3], the EC50 amounted to 0.8 nM. For `N#Cc1cc(-c2ccc3c(c2)C2(CCCCC2)C(=S)N3)cs1` [Example 3, 4-(1′, 2′-Dihydro-2′-thioxospiro[cyclohexane-1,3′-[3H]indol]-5′-yl)-2-thiophenecarbonitrile], in that order: 230 to 232 °C, 0.1 nM and 0.2 nM. `N#Cc1cc(F)cc(-c2ccc3c(c2)C2(CCCCC2)C(=S)N3)c1` [Example 4, 3-(1,2-Dihydro-2-thioxospiro[cyclohexane-1,3-[3H]indol]-5-yl)-5-fluorobenzonitrile]: the melting point lay within 236 to 250 °C. The compound also returned a Ki in data set [2] of 0.06 nM. Moreover, in data set [3], the EC50 was 0.1 nM. Further, the “Ovulation inhibition IC100” value in data set [4] is given as 0.1 mg/kg. In turn, `Cc1cc(C(N)=S)sc1-c1ccc2c(c1)C1(CCCCC1)C(=S)N2` [Example 5, 4-Methyl-5-(1,2-dihydro-2-thioxospiro[cyclohexane-1,3-[3H]-indol]-5-yl)-2-thiophene Thioamide] yielded a melting point of 244 to 249 °C. The same compound yielded a half-maximal effective concentration (EC50) in data set [3] of 0.3 nM.

For `CC1(C)C(=S)Nc2ccc(-c3cccc(Cl)c3)cc21` [Example 16, 5-(3-Chlorophenyl)-3,3-dimethyl-1,3-dihydro-2H-indole-2-thione], the melting point was in the range of 158 to 160 °C. Still for that read-out and setting: next, `CC1(Cc2ccccc2)C(=S)Nc2ccc(-c3cccc(Cl)c3)cc21` (stereo not shown) [Example 17, 3-Benzyl-5-(3-chlorophenyl)-3-methyl-1,3-dihydro-2H-indole-2-thione]: 168 to 170 °C; `COc1cccc(-c2ccc3c(c2)C(C)(C)C(=S)N3)c1` [Example 19, 5-(3-Methoxyphenyl)-3,3-dimethyl-1,3-dihydro-2H-indole2-thione]: 149 to 150 °C. For `C#C[C@]1(O)CC[C@H]2[C@@H]3CCC4=CC(=O)CC[C@@H]4[C@H]3CC[C@@]21CC` [Levonorgestrel], the EC50 in data set [1] is 0.08 mg/kg, s.c. and 0.12 mg/kg, s.c. and 0.09 mg/kg, s.c. `CC(=O)O[C@]1(C(C)=O)CC[C@H]2[C@@H]3C[C@H](C)C4=CC(=O)CC[C@]4(C)[C@H]3CC[C@@]21C` [MPA, medroxyprogesterone acetate]: the EC50 is 0.017 nM and 0.019 nM in data set [5]; 0.42 mg/kg, s.c. and 0.39 mg/kg, s.c in data set [1].

Turning to `CC(=O)[C@H]1CC[C@H]2[C@@H]3CCC4=CC(=O)CC[C@]4(C)[C@H]3CC[C@]12C` [Progesterone], in data set [1], the EC50 was 5.50 mg/kg, s.c. and 6.21 mg/kg, s.c. Consider `CC#C[C@]1(O)CC[C@H]2[C@@H]3CCC4=CC(=O)CCC4=C3[C@@H](c3ccc(N(C)C)cc3)C[C@@]21C` [RU486], for which the IC50 in data set [1] (half-maximal decrease in EC50 progesterone induced decidual response, rats, p.o.) was 0.21 mg/kg, p.o. and 0.14 mg/kg, p.o.

Take `C[C@H](O)C(=O)[C@@]1(C)CC[C@H]2[C@@H]3CCC4=CC(=O)CCC4=C3CC[C@@]21C` [Trimegestone]: the concentration giving a half-maximal response (EC50) in data set [5] is 0.017 nM and 0.014 nM and 0.019 nM.

The values are drawn from patent US6355648B1, “Thio-oxindole derivatives” (American Home Products Corporation, priority 1999, dated 2002).
